Measurements as given in patent US20260306421A1, “SYSTEMS AND METHODS FOR TRANSDERMAN PATCH DELIVERY” (VITAMAX PATCH WHOLESALER LLC, priority 2022, published 2026).
Values belong to the molecule of their own block, whether it stands above or below them.

Columns and labels:
[1] = Solubility of iron chloride hexahydrate and iron complexes (visual / assayed); assay type: physicochemical; conditions: visual (*)
Method: Due to the high number of test samples (6 complexes plus the starting material, iron chloride hexahydrate) a visual solubility screen was used to screen the solubility in a range of solvents. […] Quantitative determination was performed by either incubating the complex in excess in the solvent using a shaking 37° C. water bath for 48 h or sonicating it for 2 hours at 40° C. or leaving overnight on a 50° C. hot plate. Once incubation period was completed, the exact solubility in a particular solvent was assayed (using the iron assay) after centrifugation (i.e. assay iron content in the supernatant using the Ferrozine® assay).

[2] = Iron adhesive patch skin permeation and deposition; assay type: in vitro ADME, porcine; conditions: t-test p value, 0.5
Method: To perform the skin permeation studies, dermatomed skin (1 mm) was glued onto the receiver compartment of the Franz cell that contained 80:20 PG:water. A zero hour sample was taken from the receiver fluid, the patches were placed on top of the skin and held in place by a small weight (8.75 g). The patches that were tested were A2, A3, A4 (Table 16) as well as the existing commercial iron transdermal patch. After 24 hours, the receiver fluid was assayed using the quantitative iron assay and a compatible calibration in the same medium (80:20 PG:water) was used. The skin deposition was determined by removing the dermatomed skin from the donor compartment when the 24 h was completed, chopping into smaller pieces using scissors and incubating with the extraction fluid, ethanol. The samples were then transferred to Eppendorf tubes containing one stainless steel 5 mm bead and loaded into the TissuLyser II (Qiagen, Germany) for 30 min 30 Hz. The samples were centrifuged (5 min at 13,000 rpm) and supernatant assayed for iron content.

[3] = Iron complex adhesive compatibility and loading screen; assay type: physicochemical
Method: Pre-formulation studies were performed to determine the compatibility of the iron complexes with a range of transdermal patch adhesives (Table 15).
The compatibility of the complexes with the patch adhesives was assessed by mixing and visually checking the clarity of the mixture.
In the adhesives that were computable with the iron complexes the maximum drug loading of the complexes in the adhesive following solvent evaporation was determined. This was achieved by mixing the drug, adhesive and co-solvents until a clear solution was obtained at different drug:adhesive ratios and placing few drops of the mixture onto the patch backing sheet, leaving it to dry for 3-4 h, and examining the formed film on the surface of the backings for evidence of drug crystals.
Following complete drying of the solvents, the adhesive layer was covered by a release liner, compressed, and then cut using 34 mm circular manual die cutter (FIG. 23).

[4] = Iron complex reservoir solvent solubility screening; assay type: physicochemical; conditions: Span 80, SDS, Tween 80 and Kolliphore EL
[5] = Zinc ethyl maltol reservoir co-solvent solubility screening; assay type: physicochemical; conditions: for Solubility in PEG400:PEG1000: 3 mL methanol
Method: Pre-formulation studies were completed to optimise the solubility of zinc ethyl maltol using a variety of co-solvents that could be applied to the skin, such as Transcutol and ethanol. Polymers such as PEG 1000, Natrsol M250, and PVP were used to aid the solubilisation process. The compatibility of the complex with the solvents was evaluated by examining the clarity of the mixture. Following the optimisation of the complex solubility, the reservoir patch was developed using the backing layer, drug in solution, and liner release layer. The backing used was 3M™ Scotchpak™ Polyester Backing Film Laminate 9730. Different liner release membranes were investigated including, regenerated cellulose (12-14 k molecular weight cut-off Medical International UK), nylon (0.20 μm, Whatman, UK), and CoTran 9728 (3M, Germany). A 200 μL aliquot of zinc ethyl maltol complex in solution was applied on the liner release membrane, then covered by the backing layer and all layers thermally sealed (HeatPress machine HP230B).
The solution left to evaporate overnight to form a supersaturated solution (Table 4). This solution was then loaded into the reservoir patch.

[6] = Zinc ethyl maltol adhesive suitability (solubility/compatibility) screening; assay type: physicochemical
Method: Pre-formulation studies were performed to determine the compatibility of zinc ethyl maltol with a variety of adhesives that could be used to manufacture a transdermal patch (Table 2). The compatibility of the zinc complexes with the patch excipients was evaluated by examining the clarity of the mixture upon mixing. […] Following patch optimisation, the optimised drug-adhesive solutions were cast in 10×10 cm^2 trays made of the patch backing (3M™ Scotchpak™ Polyester Backing Film Laminate 9730, 3M, Germany). An adequate volume of the adhesive was applied to achieve a target coating level of 8 mg/cm^2 (equivalent to 80 g/m^2). Following complete drying of the solvents, the adhesive layer was covered by an M3 Release liner (SCOTCHPAK 9755), compressed, and then cut using a 34 mm circular manual die cutter (SCP Super Cutting Press).

[7] = Solubility of zinc chloride and zinc complexes (visual / HPLC); assay type: physicochemical
Method: Accurate measurement of the solubility was then repeated for some of the solvent systems by HPLC. In the HPLC solubility studies, an excess of the test agents was loaded into 2 mL of each test solvent. The solutions were left stirring overnight at 32° C. […] The drug suspensions were then centrifuged, the supernatant diluted, and each sample concentration was measured using HPLC.

[8] = Franz cell porcine skin permeation and deposition of zinc from solutions; assay type: in vitro ADME; design: elemental zinc skin deposition: unit not given here
Method: Porcine skin permeation studies were performed to compare the permeation of zinc chloride and the zinc ethyl maltol complex. The permeation of zinc chloride vs zinc ethyl maltol from PG saturated solutions (zinc chloride and zinc ethyl maltol solutions in PG was 2.45 and 2.10 mg/mL, respectively) and permeation of zinc chloride from PG statured solution vs zinc ethyl maltol from PEG400 saturated solutions were investigated (zinc ethyl maltol in PEG400 100 mg/mL). In addition, the permeation of the zinc ethyl complex from PEG400 saturated solution and PEG400:PEG1000 (8:2% w/w) was compared. For the PEG mixture, the zinc ethyl maltol donor was prepared by dissolving 60 mg of the complex in 3 mL of methanol and 1 mL of 80% w/w PEG400:20% w/w PEG 1000 then added. The solution was left overnight to allow the evaporation of methanol.
Permeation studies were conducted using previously validated Franz cell method based on the principles of the FDA, SUPAC-SS guidelines [FDA (CDER), 1997, Guidance for industry—SUPAC-SS Non-sterile Semisolid Dosage Form, Scale-up and post-approval changes: chemistry, manufacturing, and controls; in vitro release testing and in vivo bioequivalence documentation](FIG. 4). On the day of the experiment, the porcine skin was defrosted and either prepared as full-thickness sheets but removing the fat or dermatome to a 1 mm thickness (Nouvag, AG). The tissue was cut into 34 mm circles to allow an exposure area of 2.19±0.21 cm^2 and positioned between donor and receiver compartments of Franz diffusion cells. Each piece of skin was sealed between the two compartments using parafilm (Bemis Company, Neenah, WI). A 12 mm magnetic stir bar was placed into the receiver compartment of each Franz cell. The receiver compartment was loaded with 50 mM phosphate-buffered saline (pH 7.4). The cell sealing was verified by Franz cell inversion (6 times) and monitoring solvent back diffusion. The temperature of the Franz diffusion was set at 37° C. in a water bath to reach a skin temperature of 32° C. After 1 h equilibration at 37° C. in the water bath, 1 mL of receiver fluid was withdrawn (time point=0 min), and a fresh receiver solution was replaced into the cell to keep the volume consistent. Each formulation (1 mL) was applied in the donor compartment that was then covered with parafilm to avoid evaporation. After 24 h, the receiver fluid was collected and analysed by HPLC.
At the end of the permeation studies, the Franz cells were dismantled. The donor solutions were collected from each cell and transferred into 5-mL glass bottles containing 2 mL of PDCA as extraction fluid. This step was followed by wiping the skin surface and the donor compartment with two wet (wetted with extraction fluid) and then two dry cotton buds. The skin's permeation area was then cut into small pieces by scalpels and placed into a 5 mL glass bottle containing 4 mL of extraction fluid. All skin samples were kept at the bench with extraction fluid for 1 hour. This step was followed by separating each vial's content (cut skin and extraction fluid) into 2 mL Eppendorf tubes that were then loaded in TissuLyser machine for 20 minutes. Samples were then centrifuged for 15 minutes at 13,000 rpm. The content of each Eppendorf tube was filtered using 0.45 µm syringe filters, collected, and analysed by HPLC.

[9] = as above; assay type: in vitro ADME; conditions: solution in PEG (6 mg/mL)
[10] = drug loading 4%, no permeation enhancer
[11] = drug loading 8%, no permeation enhancer
[12] = drug loading 10%, 5.5 mg Transcutol
[13] = drug loading 10%, no permeation enhancer

Solubility of complex (visual) ([1]; Chloroform): <6 mg/mL Iron kojic*
Solubility of complex (visual) ([1]; Ethyl acetate): <6 mg/mL Iron kojic*
Solubility of complex (visual) ([1]; Glycerol): <6 mg/mL Iron kojic*
Solubility of complex (visual) ([1]; Hexane): <6 mg/mL Iron kojic*
Solubility of complex (visual) ([1]; Methanol): ≥18 mg/mL Iron kojic*
Solubility of complex (visual) ([1]; Oleic acid): <6 mg/mL Iron kojic*
Solubility of complex (visual) ([1]; PEG400): <6 mg/mL Iron kojic*
Solubility of complex (visual) ([1]; PG): ≥8 mg/mL Iron kojic*
Solubility of complex (visual) ([1]; Propanol): <6 mg/mL Iron kojic*
Solubility of complex (visual) ([1]; Transcutul): ≥ 8 mg/mL Iron kojic*
Solubility of complex (visual) ([1]; Triaceten): <6 mg/mL Iron kojic*
deposition compared to existing commercial iron transdermal patch [2]: no significant difference
compatibility with adhesives [3]: only compatible with DURO-TAK 9301
Solubility in DURO-TAK 9301 patch ([3]; drug loading 4%, 2 mg PG): Clear
Solubility in DURO-TAK 9301 patch [3, 10]: Clear
Solubility in DURO-TAK 9301 patch ([3]; drug loading 7%, 8 mg Maltol): Precipitated
Solubility in DURO-TAK 9301 patch ([3]; drug loading 7.5%, 4 mg PG): Precipitated
Solubility in DURO-TAK 9301 patch [3, 11]: Precipitated
Solubility in DURO-TAK 9301 patch ([3]; drug loading 10%, 5.5 mg PG): Precipitated
Solubility in DURO-TAK 9301 patch [3, 12]: Precipitated
Solubility in DURO-TAK 9301 patch [3, 13]: Precipitated
(maximum) complex loading achieved in adhesive ([3]; methanol stock solution 10 mg/mL): 4%
complex loading achieved in adhesive patch ([3]; methanol stock solution 18 mg/mL): 8.5%
Structure (SMILES): O=c1cc(CO)occ1[O-].O=c1cc(CO)occ1[O-].O=c1cc(CO)occ1[O-].[Fe+3] [Iron kojic, iron kojic acid]

visual solubility [4]: ≤ 32000 µg/mL
Solubility of complex (visual) ([1]; PEG400): <20 mg/mg/mL
Solubility of complex (visual) ([1]; PG): ≥20 mg/mg/mL
Solubility of complex (visual) ([1]; Transcutul): <20 mg/mg/mL
Solubility in DURO-TAK 9301 patch ([3]; drug loading 4%, 2 mg PG): Clear
Solubility in DURO-TAK 9301 patch [3, 10]: Clear
Solubility in DURO-TAK 9301 patch ([3]; drug loading 6%, no permeation enhancer): Precipitated
Solubility in DURO-TAK 9301 patch ([3]; drug loading 7%, 8 mg Maltol): Precipitated
Solubility in DURO-TAK 9301 patch ([3]; drug loading 7.5%, 4 mg PG): Precipitated
Solubility in DURO-TAK 9301 patch [3, 11]: Precipitated
Solubility in DURO-TAK 9301 patch ([3]; drug loading 10%, 5.5 mg PG): Precipitated
Solubility in DURO-TAK 9301 patch [3, 12]: Precipitated
Solubility in DURO-TAK 9301 patch [3, 13]: Precipitated
Structure (SMILES): Cc1occc(=O)c1[O-].Cc1occc(=O)c1[O-].Cc1occc(=O)c1[O-].[Fe+3] [Iron maltol made at pH 7.4, iron maltol]

Solubility in PEG400:PEG1000 ([5]; 60 mg, 1 mL PEG400:PEG1000 (2% w/w:8% w/w)): Not soluble
Solubility in PEG400:PEG1000 ([5]; 60 mg, 1 mL PEG400:PEG1000 (6% w/w:4% w/w)): Not soluble
Solubility in PEG400:PEG1000 ([5]; 60 mg, 1 mL PEG400:PEG1000 (8% w/w:2% w/w)): Soluble
Solubility in PEG400:PEG1000 ([5]; 80 mg, 1 mL PEG400:PEG1000 (6% w/w:4% w/w)): Not soluble
Solubility in PEG400:PEG1000 ([5]; 80 mg, 1 mL PEG400:PEG1000 (8% w/w:2% w/w)): Not soluble
Solubility in PEG400:PEG1000 ([5]; 100 mg, 1 mL PEG400:PEG1000 (6% w/w:4% w/w)): Not soluble
Solubility in PEG400:PEG1000 ([5]; 100 mg, 1 mL PEG400:PEG1000 (8% w/w:2% w/w)): Not soluble
Solubility in PEG400:PEG1000 ([5]; 120 mg, 1 mL PEG400:PEG1000 (6% w/w:4% w/w)): Not soluble
Solubility in PEG400:PEG1000 ([5]; 120 mg, 1 mL PEG400:PEG1000 (8% w/w:2% w/w)): Not soluble
maximum solubility of zinc ethyl maltol complex ([5]; PEG400): 30000 µg/mL
elemental zinc achieved in supersaturated solution ([5]; supersaturated solution based on PEG400/PG6000): 28.8 mg/mL
Solubility in DURO-TAK 9301 ([6]; drug loading 5%, no Transcutol): Not Soluble
Solubility in DURO-TAK 9301 ([6]; drug loading 7.4%, Transcutol 12.5 mg): Soluble
Solubility in DURO-TAK 9301 ([6]; drug loading 7.5%, no Transcutol): Not Soluble
Solubility in DURO-TAK 9301 ([6]; drug loading 10%, no Transcutol): Not Soluble
Solubility in DURO-TAK 9301 ([6]; drug loading […], no Transcutol): Not Soluble
Elemental zinc solubility evaluated by HPLC ([7]; solvent PEG400): 6600 µg/mL
Elemental zinc solubility evaluated by HPLC ([7]; solvent PG): 2100 µg/mL
Elemental zinc solubility evaluated by HPLC ([7]; solvent Transcutol): 6000 µg/mL
transdermal permeation of elemental zinc ([8]; 1 mL PG solution, 24 h): 4.85 µg/cm^2
permeation of elemental zinc ([8]; solution in PG ([…])): 41 μg/cm^2
daily dose delivered by the solution ([8]; solution, extrapolated): approximately 2 mg
elemental zinc passed through the skin ([8]; supersaturated solution (conclusions)): 237.93 μg/cm^2
elemental zinc permeated through the skin ([8]; supersaturated solution in PEG400:PEG1000 (8% w/w:2% w/w), 24 h): 238 µg/cm^2
elemental zinc skin deposition ([8]; vehicle PEG400, 24 h): 44.84
transdermal permeation of elemental zinc ([8]; vehicle PEG400, 24 h): 174 µg/cm^2
transdermal permeation compared to zinc chloride ([8]; zinc ethyl maltol in PEG400 vs zinc chloride in PG): 4.8 fold
permeation of elemental zinc [9]: 173.6 μg/cm^2
Structure (SMILES): CCc1occc(=O)c1[O][Zn][O]c1c(CC)occc1=O [Zinc Ethyl Maltol, zinc ethyl maltol]
